{"source": "patent US20230212517A1", "about": "“METHODS FOR GENERATING HEMATOPOIETIC STEM CELLS” (The Brigham and Women's Hospital, Inc., priority 2018, published 2023)", "key": {"[1]": {"tested_on": "primary transplant (recipient) mice", "experiment": "Delayed-type hypersensitivity assay in primary transplant mice", "format": "in vivo, mouse", "settings": "primary transplant of treated E11.5 AGM", "protocol": "Pulsating blood vessels like conditions were stimulated in vitro using FLEXCELL FX-4000 cell stretching bioreactor machine. To analyze roles of pharmacological targets in regulating the endothelial-to-HSC transition, mouse embryo-derived AGM or whole mouse embryo were exposed ex vivo with biomechanical stretching, chemicals, or drugs. Next, hematopoietic colony formation assays were performed by incubating mouse AGM-derived cells in StemCell M3434 media for seven days. Serial transplantation of AGM-derived HSCs in lethally irradiated SJL mice were performed. The stem cell frequency upon biomechanical stretching was analyzed using a limiting dilution assay. To characterize properties of AGM-HSC-derived blood cells in primary transplants, percentage chimerism and reconstitution was measured using FACS, globin transcripts were analyzed using quantitative reverse transcriptase-PCR, myeloperoxidase amount was measured using PICOKINE ELISA kit, TCR-β rearrangement was analyzed using PCR for TCR-β locus, pre-immune IG detection was analyzed using Thermo-Fisher Mouse Ig Isotyping kit, and delayed-type hypersensitivity was analyzed by injecting sheep RBC (Rockland Immunochemicals) in the footpad of pre-sensitized mice. […]"}, "[2]": {"tested_on": "human iPSC-derived HE cells", "experiment": "Endothelial-to-hematopoietic transition in human iPSC-derived HE cells (FACS, CD34/CD45)", "format": "cell-based", "settings": "Yoda1 between 6.25 and 100 μM", "protocol": "Embryoid body and hemogenic endothelium differentiation was performed as described in (Sugimura et al. 2017; Ditadi et al. 2015). Briefly, hiPSC colonies were dissociated with 0.05% trypsin for 5 min at 37° C., washed with PBS+2% FBS, and resuspended in STEMPRO-34 medium (Invitrogen, 10639-011) supplemented with L-glutamine (2 mM), penicillin/streptomycin (10 ng/ml), ascorbic acid (1 mM), human holo-Transferrin (150 μg/ml, Sigma T0665), monothioglycerol (MTG, 0.4 mM), BMP4 (10 ng/ml), and Y-27632 (10 μM). Five million cells were seeded into 10 cm dishes (Ezsphere, Asahi Glass) for the spheroid formation. On Day 1, bFGF (5 ng/ml) and BMP4 (10 ng/ml) was added to the medium. On Day 2, the media was changed with the STEMPRO-34 supplemented with SB431542 (6 μM), CHIR99021 (3 μM), bFGF (5 ng/ml), and BMP4 (10 ng/ml). On Day 3, the medium was replaced with STEMPRO-34 supplemented with VEGF (15 ng/ml) and bFGF (10 ng/ml). On day 6, the medium was changed to STEMPRO-34 supplemented with bFGF (5 ng/ml), VEGF (15 ng/ml), interleukin (IL)-6 (10 ng/ml), IGF-1 (25 ng/ml), IL-11 (5 ng/ml), SCF (50 ng/ml) and EPO (2IU). The cells were maintained in a 5% CO2, 5% O2 and 95% humidity incubator. […]"}, "Dnmt3a": {"tested_on": "Dnmt3a", "experiment": "Dnmt3a protein level in nuclear fractions of E11.5 AGM cells (EPIQUIK assay kit)", "format": "cell-based, mouse", "settings": "nuclear fractions of treated E11.5 AGM cells", "protocol": "RNA-sequencing analyses were performed to measure gene expression patterns in mouse AGM treated with cyclic strain or pharmacological modulators. Using computational algorithms, hierarchical clustering was performed of differentially expressed genes as well as measured their overrepresented biological processes and pathways. Gene expression clusters of differentially expressed genes were analyzed and their mean expression level across cell populations compared. Next, Venn comparison of up- and down-genes was constructed to analyze candidate(s) important for cyclic strain- or pharmacological modulator(s)-mediated the endothelial-to-HSC transition. Furthermore, Dnmt3b and Dnmt3a protein expressions were analyzed in nuclear fractions of mouse AGM cells using EPIQUIK methyltransferase assay kits. Data are presented as mean±s.d. unless otherwise noted. Statistical analyses were performed by paired or un-paired Student's t-tests. Significance was set at P<0.05.\nNuclear extracts from AGM explants were harvested using an EPIQUIK Nuclear Extraction Kit (Epigentek Group Inc.). Dnmt3b and Dnmt3a protein levels were analyzed using a colorimetric EPIQUIK methyltransferase Assay Kit (Epigentek Group Inc.), according to the manufacturer's instructions. Concentration of Dnmt3b and Dnmt3a is relative to 1 μg of nuclear extract proteins."}}, "note": "Entries after “also recorded” stand apart in the source; their conditions may differ."}
{"smiles": "Clc1cccc(Cl)c1CSc1nnc(-c2cnccn2)s1", "note": "[Yoda1, 2-[5-[[(2,6-Dichlorophenyl)methyl]thio]-1,3,4-thiadiazol-2-yl]-pyrazine]", "values": [{"measurement": "T-cell mediated immune response (footpad, sheep RBC challenge)", "setting": "[1]", "result": "possess T-cell mediated immune response"}, {"measurement": "dose dependence of the endothelial-to-hematopoietic transition", "setting": "[2]", "result": "dose dependent"}, {"measurement": "endothelial-to-hematopoietic transition", "setting": "[2]; 7 days, data not shown", "result": "induced the endothelial-to-hematopoietic transition"}, {"measurement": "Dnmt3a protein expression level", "setting": "Dnmt3a", "result": "not Dnmt3a; also recorded: without impacting the expression of Dnmt3a"}]}
